Results reported in patent US11434227B2, “Broad spectrum antibacterial activity of novel bisbenzimidazoles targeting topoisomerase IA and the synergistic composition of bisbenzimidazole with efflux pump inhibitors against pathogenic bacteria” (Jawaharlal Nehru University (JNU), priority 2016, dated 2022).
Values after ≈ are worked out from the molar mass of the structure shown.

Tests used:
Escherichia coli 385 = experiment: Susceptibility (MIC50/MIC90), broth microdilution
Procedure: (§1) MICs were determined by the broth microdilution method according to CLSI methods (Clinical and Laboratory Standards Institute, 2005). Inoculants were incubated at 37° C. on cation adjusted Mueller Hinton (MH) Broth for 18 to 24 h. Compound were dissolved in media to 10 doubling dilutions from 128 to 0.125 μg/mL. All the bacterial strains were grown in 96 well plate with low evaporation lid (Falcon, Becton Dickinson) in presence of derivatives of benzimidazoles at 0.125, 0.25, 0.5, 1, 2, 4, 8, 16, 32, 64, 128, 256 μg/mL concentrations. […] Plates were read by Tecan Micro-plate Reader at 600 nm.

[1] = test system: Acinetobacter baumannii (MTCC1920); experiment: Susceptibility (MIC50/MIC90), broth microdilution
Procedure: as §1

E. coli K12 mutant ΔtolC = experiment: Susceptibility of E. coli K12 and mutants (MIC90); settings: Escherichia coli
Procedure: as §1

[2] = test system: Klebsiella planticola (K1164); experiment: Susceptibility (MIC50/MIC90), broth microdilution
Procedure: as §1

[3] = test system: Klebsiella planticola (K235); experiment: Susceptibility (MIC50/MIC90), broth microdilution
Procedure: as §1

[4] = test system: Klebsiella planticola (MTCC 2272); experiment: Susceptibility (MIC50/MIC90), broth microdilution; settings: MTCC2272
Procedure: as §1

Enterococcus sp. (1367) = experiment: Susceptibility (MIC50/MIC90), broth microdilution
Procedure: as §1

Enterococcus sp. (2105) = experiment: Susceptibility (MIC50/MIC90), broth microdilution
Procedure: as §1

[5] = test system: Pseudomonas aeruginosa (MTCC 366); experiment: Susceptibility (MIC50/MIC90), broth microdilution; settings: MTCC366
Procedure: as §1

[6] = test system: isogenic efflux deleted strains; experiment: Susceptibility of isogenic efflux deleted strains versus wild type; assay type: cell-based, Escherichia coli; settings: in comparison to wild type strains
E. coli K12 mutant ΔompC = experiment: Susceptibility of E. coli K12 and mutants (MIC90); settings: Escherichia coli
Procedure: as §1

[7] = test system: E. coli K12 mutant ΔTopIA; experiment: Susceptibility of E. coli K12 and mutants (MIC90); settings: Escherichia coli
Procedure: as §1

Enterococcus sp.(1150) = experiment: Susceptibility (MIC50/MIC90), broth microdilution
Procedure: as §1

[8] = test system: Staphylococcus sp. (1016); experiment: Susceptibility (MIC50/MIC90), broth microdilution; settings: Staphylococcus
Procedure: as §1

M. tuberculosis = experiment: Effect on virulent and avirulent strains of M. tuberculosis; assay type: cell-based, Mycobacterium tuberculosis
[9] = test system: Shigella flexineri (MTCC1457); experiment: Susceptibility (MIC50/MIC90), broth microdilution; assay type: cell-based
[10] = test system: E. coli K12 mutant ΔTopIB; experiment: Susceptibility of E. coli K12 and mutants (MIC90); settings: Escherichia coli
Procedure: as §1

Escherichia coli 392 = experiment: Susceptibility (MIC50/MIC90), broth microdilution
Procedure: as §1

E. coli K12 mutant ΔompF = experiment: Susceptibility of E. coli K12 and mutants (MIC90); settings: Escherichia coli
Procedure: as §1

[11] = test system: Escherichia coli (ATCC 25922); experiment: Susceptibility (MIC, PAE, MBC), broth microdilution; settings: Escherichia coli, ATCC25922, Escherichia coli (ATCC 25922); Table 2
Procedure: as §1

[12] = test system: Mycobacterium tuberculosis H37Ra (avirulent); experiment: Susceptibility of Mycobacterium tuberculosis strains (MIC90); assay type: cell-based
[13] = test system: Acinetobacter baumannii (AB387); experiment: Susceptibility (MIC50/MIC90), broth microdilution
Procedure: as §1

[14] = test system: Pseudomonas aeruginosa (MTCC1688); experiment: Susceptibility (MIC50/MIC90), broth microdilution
Procedure: as §1

Staphylococcus sp. (976) = experiment: Susceptibility (MIC50/MIC90), broth microdilution
Procedure: as §1

[15] = test system: Salmonella typhimurium (MTCC 1251); experiment: Susceptibility (MIC50/MIC90), broth microdilution; settings: Salmonella enterica
Procedure: as §1

Staphylococcus sp. (982) = experiment: Susceptibility (MIC50/MIC90), broth microdilution
Procedure: as §1

Enterococcus sp. (1365) = experiment: Susceptibility (MIC50/MIC90), broth microdilution
Procedure: as §1

[16] = test system: Pseudomonas aeruginosa (Ps162); experiment: Susceptibility (MIC50/MIC90), broth microdilution
Procedure: as §1

[17] = test system: Mycobacterium tuberculosis H37Rv (virulent); experiment: Susceptibility of Mycobacterium tuberculosis strains (MIC90); assay type: cell-based
Enterococcus sp. (432) = experiment: Susceptibility (MIC50/MIC90), broth microdilution
Procedure: as §1

E. coli K12 mutant ΔemrA = experiment: Susceptibility of E. coli K12 and mutants (MIC90); settings: Escherichia coli
Procedure: as §1

[18] = test system: Salmonella typhimurium (St412); experiment: Susceptibility (MIC50/MIC90), broth microdilution; settings: Salmonella enterica
Procedure: as §1

E. coli K12 = experiment: Susceptibility of E. coli K12 and mutants (MIC90); settings: Escherichia coli
Procedure: as §1

[19] = test system: Acinetobacter baumannii (AB312); experiment: Susceptibility (MIC50/MIC90), broth microdilution
Procedure: as §1

[20] = test system: Klebsiella planticola (K589); experiment: Susceptibility (MIC50/MIC90), broth microdilution
Procedure: as §1

Enterococcus sp. (1121) = experiment: Susceptibility (MIC50/MIC90), broth microdilution
Procedure: as §1

E. coli K12 mutant ΔacrA = experiment: Susceptibility of E. coli K12 and mutants (MIC90); settings: Escherichia coli
Procedure: as §1

CCCCN1CCN(c2ccc3nc(-c4ccc5[nH]c(-c6ccc(OCC)cc6)nc5c4)[nH]c3c2)CC1 [SP12b, 5-(4-butylpiperazin-1-yl)-2′-(4-ethoxyphenyl)-1H,1′H-2,5′-bibenzo[d]imidazole]
MIC50 (Escherichia coli 385): 15 µg/mL (≈ 30.3 µM) | MIC90 (Escherichia coli 385): 27 µg/mL (≈ 54.6 µM) | MIC50 [1]: > 128 µg/mL | MIC90 [1]: 128 µg/mL (≈ 259 µM) | MIC90 (E. coli K12 mutant ΔtolC): 2.8 µg/mL (≈ 5.66 µM) | MIC50 [2]: > 128 µg/mL | MIC90 [2]: 128 µg/mL (≈ 259 µM) | MIC50 [3]: 25.9 µg/mL (≈ 52.4 µM) | MIC90 [3]: 59.5 µg/mL (≈ 120 µM) | MIC50 [4]: > 128 µg/mL | MIC90 [4]: 128 µg/mL (≈ 259 µM) | MIC50 (Enterococcus sp. (1367)): < 0.25 µg/mL | MIC90 (Enterococcus sp. (1367)): 1 µg/mL (≈ 2.02 µM) | MIC50 (Enterococcus sp. (2105)): 3.7 µg/mL (≈ 7.48 µM) | MIC90 (Enterococcus sp. (2105)): 9.08 µg/mL (≈ 18.4 µM) | MIC50 [5]: 0.4 µg/mL (≈ 0.809 µM) | MIC90 [5]: 0.8 µg/mL (≈ 1.62 µM) | sensitisation of efflux deleted strains [6]: more sensitised | MIC90 (E. coli K12 mutant ΔompC): 30.9 µg/mL (≈ 62.5 µM) | MIC90 [7]: 5.7 µg/mL (≈ 11.5 µM) | MIC50 (Enterococcus sp.(1150)): < 0.25 µg/mL | MIC90 (Enterococcus sp.(1150)): 2 µg/mL (≈ 4.04 µM) | MIC50 [8]: < 0.25 µg/mL | MIC90 [8]: 0.92 µg/mL (≈ 1.86 µM) | effect on M. tuberculosis (M. tuberculosis): effective against M. tuberculosis | MIC50 [9]: 1.24 µg/mL (≈ 2.51 µM) | MIC90 [9]: 3.01 µg/mL (≈ 6.09 µM) | MIC90 [10]: 17.8 µg/mL (≈ 36 µM) | MIC50 (Escherichia coli 392): 1.8 µg/mL (≈ 3.64 µM) | MIC90 (Escherichia coli 392): 60 µg/mL (≈ 121 µM) | MIC90 (E. coli K12 mutant ΔompF): 30.9 µg/mL (≈ 62.5 µM) | MIC50 [11]: 9.5 µg/mL (≈ 19.2 µM) | MIC90 [11]: 24.9 µg/mL (≈ 50.3 µM) | MIC90 [12]: 1.78 µg/mL (≈ 3.6 µM) | MIC50 [13]: 12 µg/mL (≈ 24.3 µM) | MIC90 [13]: 16 µg/mL (≈ 32.3 µM) | MIC50 [14]: > 128 µg/mL | MIC90 [14]: 128 µg/mL (≈ 259 µM) | MIC50 (Staphylococcus sp. (976)): < 0.25 µg/mL | MIC90 (Staphylococcus sp. (976)): 0.42 µg/mL (≈ 0.849 µM) | MIC50 [15]: < 0.25 µg/mL | MIC90 [15]: 0.25 µg/mL (≈ 0.505 µM) | MIC50 (Staphylococcus sp. (982)): > 128 µg/mL | MIC90 (Staphylococcus sp. (982)): > 128 µg/mL | MIC50 (Enterococcus sp. (1365)): < 0.25 µg/mL | MIC90 (Enterococcus sp. (1365)): 2 µg/mL (≈ 4.04 µM) | MIC50 [16]: 40.5 µg/mL (≈ 81.9 µM) | MIC90 [16]: 70.3 µg/mL (≈ 142 µM) | MIC90 [17]: 9.8 µg/mL (≈ 19.8 µM) | MIC50 (Enterococcus sp. (432)): > 128 µg/mL | MIC90 (Enterococcus sp. (432)): > 128 µg/mL | MIC90 (E. coli K12 mutant ΔemrA): 7.4 µg/mL (≈ 15 µM) | MIC50 [18]: < 0.25 µg/mL | MIC90 [18]: 0.25 µg/mL (≈ 0.505 µM) | MIC90 (E. coli K12): 32 µg/mL (≈ 64.7 µM) | MIC50 [19]: 14.6 µg/mL (≈ 29.5 µM) | MIC90 [19]: 28.6 µg/mL (≈ 57.8 µM) | MIC50 [20]: 3.4 µg/mL (≈ 6.87 µM) | MIC90 [20]: 6.8 µg/mL (≈ 13.7 µM) | MIC50 (Enterococcus sp. (1121)): < 0.25 µg/mL | MIC90 (Enterococcus sp. (1121)): 0.92 µg/mL (≈ 1.86 µM) | MIC90 (E. coli K12 mutant ΔacrA): 3.9 µg/mL (≈ 7.88 µM)
